# Measured values published in patent publication US10829796B2, “Bacteria identification and antimicrobial susceptibility test” (priority 2015, dated 2020).
# Test system: bacteria in clinical bovine mastitis milk samples
# Assay: Combined bacteria identification and antimicrobial susceptibility test (colour of wells, MIC) on clinical bovine mastitis milk samples
# Type: cell-based
# Experimental: Clinical bovine mastitis milk samples were collected by a vet clinic in South Island, New Zealand. Samples were stored in the freezer for several months and shipped frozen to the testing facility. In this Example, the term “clinical” means that dairy cows had clinical symptoms of an udder infection e.g. cow behaved unusual, milk clots, swollen udder among other typical symptoms. Testing was executed in microwell plate comprising of 24 wells (3×8 wells).
# In addition, 20 ul of clinical mastitis sample was added to each well with a laboratory pipette.
# (§1) Abbreviations • 1. 80 ul GC+10 ul Tell: 80 ul Giolitti Cantoni base broth+10 ul Tellurite solution (1%); • 2. 80 ul TSB/Esc/Fer Cit: 80 ul Tryptic soy broth containing 0.25% Esculin and 0.125% Ammonium Ferric Citrate; • 3. 80 ul TSB/Esc/Fer Cit+10 ul Genta: 80 ul Tryptic soy broth containing 0.25% Esculin and 0.125% Ammonium Ferric Citrate+10 ul of Gentamycin solution 10 mg/ml; • 4. 80 ul McC/PR25: 80 ul MacConkey broth (single strength) containing 0.0125% phenol red; and • 5. 80 ul TSB/PR25: 80 ul Tryptic soy broth containing 0.0125% phenol red. Bacteria Identification
# Columns A to C and rows 1 and 2 were used for bacteria identification. A1: coagulase positive Staph; A2: Staphylococci; B1: Strep group D; B2: Strep group D; C1: general enrichment media (gram+ and gram-bacteria); C2: coliform bacteria.
# Column A3 to A8: serial dilution of benzyl penicillin as potassium. Column B3 to B8: serial dilution of ceftiofur as hydrochloride. Column C3 to C8: serial dilution of cloxacillin as sodium. Antibiotic concentrations are listed as free form ranging between 4 ug/ml to 0.05 ug/ml.
# Minimum inhibitory substance concentration (MIC) is here defined as the concentration if a colour change occurs between two wells (one well remains red with drug concentration 1, the other one yellow with drug concentration 2, whereas drug concentration 1 is larger than drug concentration 2) then the MIC is the value of drug concentration 1.
# Table 21 indicates the microwell plate configuration #1; Drugs: Benzylpenicillin as potassium; Cloxacillin as sodium; Ceftiofur as hydrochloride; Drug concentration in each well (A3 to C8) is based on 80 μl composition+10 μl drug solution+20 μl clinical mastitis milk sample and equivalent to listed drug concentration in μg/ml; 20 ul of clinical bovine mastitis milk sample was added to each well (A1 to C8).
# In addition, each well received one drop of clinical sample from a transfer pipette which was on average about 35 mg. This was determined through weighing the well plate prior and after the addition of clinical mastitis samples. This weight was then divided by 24.
# as §1, with “•” for “Abbreviations •”, “red.” for “red. Bacteria Identification”
# Columns A to C and rows 1 and 2 were used for bacteria identification. A1: coagulase positive Staph; A2: Staphylococci; B1: Strep Group D; B2: -; C1: general enrichment media (gram+ and gram-); C2: coliform bacteria.
# Column A3 to A8: serial dilution of benzyl penicillin as potassium. Drug concentrations given as free form ranging between 4 ug/ml to 0.05 ug/ml. Column B3 to B8: serial dilution of ceftiofur as hydrochloride. Drug concentrations given as free form ranging between 4 ug/ml to 0.05 ug/ml. Column C3 to C8: serial dilution of cloxacillin as sodium. Drug concentrations given as free form ranging between 4 ug/ml to 0.05 ug/ml.
smiles,measurement,setting,value
CO/N=C(\C(=O)N[C@@H]1C(=O)N2C(C(=O)O)=C(CSC(=O)c3ccco3)CS[C@H]12)c1csc(N)n1 [ceftiofur],Colour of media in each well,"ID 5 to 8, T = 0 h (prior incubation, reference), plate configuration #2, drug 2 μg/ml",red
same,Colour of media in each well,"ID 5 to 8, T = 0 h (prior incubation, reference), plate configuration #2, drug 4 μg/ml",red
same,Colour of media in each well,"ID 6, T = 23h, 37° C., plate configuration #2, drug 0.05 μg/ml (Table 31)",yellow
same,Colour of media in each well,"ID 6, T = 23h, 37° C., plate configuration #2, drug 0.1 μg/ml (Table 31)",yellow
same,Colour of media in each well,"ID 6, T = 23h, 37° C., plate configuration #2, drug 0.5 μg/ml (Table 31)",yellow
same,Colour of media in each well,"ID 6, T = 23h, 37° C., plate configuration #2, drug 1 μg/ml (Table 31)",yellow
same,Colour of media in each well,"ID 6, T = 23h, 37° C., plate configuration #2, drug 2 μg/ml (Table 31)",red
same,Colour of media in each well,"ID 6, T = 23h, 37° C., plate configuration #2, drug 4 μg/ml (Table 31)",red
same,Colour of media in each well,"ID 6, T~7 h, 37° C., plate configuration #2, Table 35, drug 0.05 μg/ml",yellow
same,Colour of media in each well,"ID 6, T~7 h, 37° C., plate configuration #2, Table 35, drug 0.1 μg/ml",yellow
same,Colour of media in each well,"ID 6, T~7 h, 37° C., plate configuration #2, Table 35, drug 0.5 μg/ml",yellow
same,Colour of media in each well,"ID 6, T~7 h, 37° C., plate configuration #2, Table 35, drug 1 μg/ml",red
same,Colour of media in each well,"ID 6, T~7 h, 37° C., plate configuration #2, Table 35, drug 2 μg/ml",red
same,Colour of media in each well,"ID 6, T~7 h, 37° C., plate configuration #2, Table 35, drug 4 μg/ml",red
same,Colour of media in each well,"ID 6, T~11 h, 37° C., plate configuration #2, Table 35, drug 0.05 μg/ml",yellow
same,Colour of media in each well,"ID 6, T~11 h, 37° C., plate configuration #2, Table 35, drug 0.1 μg/ml",yellow
same,Colour of media in each well,"ID 6, T~11 h, 37° C., plate configuration #2, Table 35, drug 0.5 μg/ml",yellow
same,Colour of media in each well,"ID 6, T~11 h, 37° C., plate configuration #2, Table 35, drug 1 μg/ml",red
same,Colour of media in each well,"ID 6, T~11 h, 37° C., plate configuration #2, Table 35, drug 2 μg/ml",red
same,Colour of media in each well,"ID 6, T~11 h, 37° C., plate configuration #2, Table 35, drug 4 μg/ml",red
same,Colour of media in each well,"ID 6, T~23 h, 37° C., plate configuration #2, Table 35, drug 0.05 μg/ml",yellow
same,Colour of media in each well,"ID 6, T~23 h, 37° C., plate configuration #2, Table 35, drug 0.1 μg/ml",yellow
same,Colour of media in each well,"ID 6, T~23 h, 37° C., plate configuration #2, Table 35, drug 0.5 μg/ml",yellow
same,Colour of media in each well,"ID 6, T~23 h, 37° C., plate configuration #2, Table 35, drug 1 μg/ml",yellow
same,Colour of media in each well,"ID 6, T~23 h, 37° C., plate configuration #2, Table 35, drug 2 μg/ml",red
same,Colour of media in each well,"ID 6, T~23 h, 37° C., plate configuration #2, Table 35, drug 4 μg/ml",red
same,Colour of media in each well,"ID 7, T = 23h, 37° C., plate configuration #2, drug 0.05 μg/ml",yellow
same,Colour of media in each well,"ID 7, T = 23h, 37° C., plate configuration #2, drug 0.1 μg/ml",yellow
same,Colour of media in each well,"ID 7, T = 23h, 37° C., plate configuration #2, drug 0.5 μg/ml",yellow
same,Colour of media in each well,"ID 7, T = 23h, 37° C., plate configuration #2, drug 1 μg/ml",red
same,Colour of media in each well,"ID 7, T = 23h, 37° C., plate configuration #2, drug 2 μg/ml",red
same,Colour of media in each well,"ID 7, T = 23h, 37° C., plate configuration #2, drug 4 μg/ml",red
same,Colour of media in each well,"ID 8, T = 23 h, 37° C., plate configuration #2, drug 0.05 μg/ml",yellow
same,Colour of media in each well,"ID 8, T = 23 h, 37° C., plate configuration #2, drug 0.1 μg/ml",yellow
same,Colour of media in each well,"ID 8, T = 23 h, 37° C., plate configuration #2, drug 0.5 μg/ml",red
same,Colour of media in each well,"ID 8, T = 23 h, 37° C., plate configuration #2, drug 1 μg/ml",red
same,Colour of media in each well,"ID 8, T = 23 h, 37° C., plate configuration #2, drug 2 μg/ml",red
same,Colour of media in each well,"ID 8, T = 23 h, 37° C., plate configuration #2, drug 4 μg/ml",red
same,Colour of media in each well,"Table 24, sample ID 2, 22 hours at 37° C., plate configuration #1, row 3 of serial dilution 4 ug/ml to 0.05 ug/ml",red
same,Colour of media in each well,"Table 24, sample ID 2, 22 hours at 37° C., plate configuration #1, row 4 of serial dilution 4 ug/ml to 0.05 ug/ml",red
same,Colour of media in each well,"Table 24, sample ID 2, 22 hours at 37° C., plate configuration #1, row 5 of serial dilution 4 ug/ml to 0.05 ug/ml",red
same,Colour of media in each well,"Table 24, sample ID 2, 22 hours at 37° C., plate configuration #1, row 6 of serial dilution 4 ug/ml to 0.05 ug/ml",orange
same,Colour of media in each well,"Table 24, sample ID 2, 22 hours at 37° C., plate configuration #1, row 7 of serial dilution 4 ug/ml to 0.05 ug/ml",yellow
same,Colour of media in each well,"Table 24, sample ID 2, 22 hours at 37° C., plate configuration #1, row 8 of serial dilution 4 ug/ml to 0.05 ug/ml",yellow
same,MIC,"clinical sample ID 1 (streptococci group D), 37° C. for 22 hours, plate configuration #1",0.5 µg/mL
same,MIC,"clinical sample ID 2 (streptococci group D, also coagulase positive Staph), 37° C. for 22 hours, plate configuration #1",1 µg/mL
same,MIC,"clinical sample ID 3 (coliform bacteria), 37° C. for 22 hours, plate configuration #1",1 µg/mL
same,MIC,"clinical sample ID 4 (coagulase positive Staph), 37° C. for 22 hours, plate configuration #1",1 µg/mL
same,MIC,"clinical sample ID 5 (streptococci group D), 37° C. for 23 hours, plate configuration #2",0.5 µg/mL
same,MIC,"clinical sample ID 6 (coliform bacteria), 37° C. for 23 hours, plate configuration #2",2 µg/mL
same,MIC,"clinical sample ID 7 (coagulase positive Staph), 37° C. for 23 hours, plate configuration #2",1 µg/mL
same,MIC,"clinical sample ID 8 (coagulase negative Staph and Streptococci group D), 37° C. for 23 hours, plate configuration #2",0.5 µg/mL
